Consider three molecules from paper PMC9963409, “Structural Insight into Catalysis by the Flavin-Dependent NADH Oxidase (Pden_5119) of Paracoccus denitrificans” (International Journal of Molecular Sciences, 2023).

In general, stoichiometry N refers to a count of units in the complex or per binding partner.

Data set [1] concerns the target T1, Pden_5119 (Paracoccus denitrificans, UniProt A1BCD5, H117A).
T1 construct: C-terminal His6 tag kept, expressed in E. coli BL21(DE3)pLysS; subunit 20596 g/mol; dimer in solution; contains no cysteine
Description: intrinsic protein fluorescence quenching titration. The data set is classed as binding. The conditions noted are these: read-out: Kd^FMN. From the text:
(§1) intrinsic protein fluorescence quenching titration on Pden_5119

Data set [2] has as its target T2, Pden_5119 (Paracoccus denitrificans, UniProt A1BCD5, R116K).
T2 construct: C-terminal His6 tag kept, expressed in E. coli BL21(DE3)pLysS; subunit 20596 g/mol; dimer in solution; contains no cysteine
Description: intrinsic protein fluorescence quenching titration. The following applies: read-out: Kd^FMN. It counts as binding.
Excerpt: as §1

In data set [3] the target is T3, Pden_5119 (Paracoccus denitrificans, UniProt A1BCD5, R116A).
T3 construct: C-terminal His6 tag kept, expressed in E. coli BL21(DE3)pLysS; subunit 20596 g/mol; dimer in solution; contains no cysteine
T3 sequence (A1BCD5 entry or part of it R116A): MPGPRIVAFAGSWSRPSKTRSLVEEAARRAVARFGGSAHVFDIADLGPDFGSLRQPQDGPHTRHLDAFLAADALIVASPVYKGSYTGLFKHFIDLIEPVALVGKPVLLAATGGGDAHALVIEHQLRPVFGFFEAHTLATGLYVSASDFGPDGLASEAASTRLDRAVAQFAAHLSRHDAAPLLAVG
The data set can be described thus: intrinsic protein fluorescence quenching titration. It counts as binding. The conditions noted are these: read-out: Kd^FMN.
Excerpt: as §1

The target in data set [4] is T4, Pden_5119 (Paracoccus denitrificans, UniProt A1BCD5, K82A).
T4 construct: C-terminal His6 tag kept, expressed in E. coli BL21(DE3)pLysS; subunit 20596 g/mol; dimer in solution; contains no cysteine
T4 sequence (A1BCD5 entry or part of it K82A): as the sequence (A1BCD5 entry or part of it R116A) above, with K82A, A116R counted along it
The data set can be described thus: intrinsic protein fluorescence quenching titration. It counts as binding. The following applies: read-out: Kd^FMN.
Excerpt: as §1

In data set [5] the target is T5, Pden_5119 (Paracoccus denitrificans, UniProt A1BCD5).
T5 construct: C-terminal His6 tag kept, expressed in E. coli BL21(DE3)pLysS; subunit 20596 g/mol; dimer in solution; contains no cysteine
The data set can be described thus: intrinsic protein fluorescence quenching titration. The conditions noted are these: read-out: Kd^FMN. It counts as binding.
Excerpt: as §1

The target of data set [6] is T1, Pden_5119. Description: stopped-flow reduction of enzyme-bound FMN at […] nm, hyperbolic fit of kobs. The conditions noted are these: anaerobic reductive half-reaction of enzyme-FMN complex; rapid-equilibrium binding step; 0.1 M sodium phosphate pH 7.3; 10 °C; read-out: KNADH. The data set is classed as biochemical.
Data set [7] has as its target T2, Pden_5119. The data set is described as above. The data set is classed as biochemical. The following applies: anaerobic reductive half-reaction of enzyme-FMN complex; rapid-equilibrium binding step; 0.1 M sodium phosphate pH 7.3; 10 °C; read-out: KNADH.
Data set [8] addresses T3, Pden_5119. The description is as above. The data set is classed as biochemical. The following applies: anaerobic reductive half-reaction of enzyme-FMN complex; rapid-equilibrium binding step; 0.1 M sodium phosphate pH 7.3; 10 °C; read-out: KNADH.
In data set [9] the target is T5, Pden_5119. The description is as above. It counts as biochemical. The following applies: anaerobic reductive half-reaction of enzyme-FMN complex; rapid-equilibrium binding step; 0.1 M sodium phosphate pH 7.3; 10 °C; read-out: KNADH.
Data set [10] has as its target T4, Pden_5119. The description is as above. It counts as biochemical. The following applies: anaerobic reductive half-reaction of enzyme-FMN complex; rapid-equilibrium binding step; 0.1 M sodium phosphate pH 7.3; 10 °C; read-out: KNADH.
Data set [11] concerns the molecule itself. The data set can be described thus: SAXS; protein at 1.5 mg/mL (73 μM in monomer); ab initio envelope (DAMMIN) and CRYSOL fit of a dimeric homology model to the scattering curve.

T1 sequence (A1BCD5 entry or part of it H117A): as the sequence (A1BCD5 entry or part of it R116A) above, with A116R, H117A counted along it
T2 sequence (A1BCD5 entry or part of it R116K): as the sequence (A1BCD5 entry or part of it R116A) above, with A116K counted along it

Regarding `Cc1cc2nc3c(=O)[nH]c(=O)nc-3n(C[C@H](O)[C@H](O)[C@H](O)COP(=O)(O)O)c2cc1C` [FMN], the Kd turned out to be 9.1 ± 0.6 µM at Pden_5119 [1]; 0.6 ± 0.1 µM at Pden_5119 [2]; 3.5 ± 1.5 µM on Pden_5119 [3]; 6.8 ± 3.4 µM at Pden_5119 [4]; 3.8 ± 0.4 µM at Pden_5119 [5].
`NC(=O)C1=CN([C@@H]2O[C@H](COP(=O)(O)OP(=O)(O)OC[C@H]3O[C@@H](n4cnc5c(N)ncnc54)[C@H](O)[C@@H]3O)[C@@H](O)[C@H]2O)C=CC1` [NADH]: the Kd at Pden_5119 [6] was 40 ± 7 µM; at Pden_5119 [7], 20 ± 4 µM; at Pden_5119 [8], 39 ± 17 µM; on Pden_5119 [9], 19 ± 1 µM; on Pden_5119 [10], 53 ± 18 µM.

B1: Pden_5119 protein (flavin-dependent NADH oxidase of Paracoccus denitrificans) (enzyme)
chain: MPGPRIVAFAGSWSRPSKTRSLVEEAARRAVARFGGSAHVFDIADLGPDFGSLRQPQDGPHTRHLDAFLAADALIVASPVYKGSYTGLFKHFIDLIEPVALVGKPVLLAATGGGDRHALVIEHQLRPVFGFFEAHTLATGLYVSASDFGPDGLASEAASTRLDRAVAQFAAHLSRHDAAPLLAVG
notes: Pden_5119, product of the gene pden_5119 of Paracoccus denitrificans; subunit molar mass 20 596 g/mol; 15 histidines per monomer including the tag; also called wild-type; not shown: His6, C-terminal, kept
In the case of B1, the “stoichiometry N” value in [11] stood at 2.
